{"source": "PubChem BioAssay AID2060908", "about": "(Molecular Pharmacology Branch, DTP, NCI, 2025);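 further: spheroids exposed to compounds for 7 days before viability read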", "tested_on": "186277-243-T-J2-PDC complex spheroids, viability", "test": "Anticancer human tumor 186277-243-T-J2-PDC patient-derived colon adenocarcinoma cell line growth inhibition [RAS]", "settings": "for viability, T/C: stronger effect = lower value", "outline": "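Multi-cell-type spheroids: tumor cells plus HUVEC endothelial cells and mesenchymal stem cells. RAS-pathway inhibitors were combined with targeted agents, each dosed in half-log steps down from clinical Cmax, or from 10 microM when Cmax was unknown.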"}
{"smiles": "CC1(O)CCCC1n1c(=O)c(C(F)F)cc2cnc(NC3CCN(S(C)(=O)=O)CC3)nc21", "note": "(centres undefined) + CCn1c(-c2cc(N3CCN(C)CC3)cnc2C(C)OC)c2c3cc(ccc31)-c1csc(n1)CC(NC(=O)C1CC1C)C(=O)N1CCCC(N1)C(=O)OCC(C)(C)C2", "values": [{"measurement": "IC50", "setting": "curve of first compound, second compound 0.000949 µM", "result": 3790, "unit": "nM"}, {"measurement": "IC50", "setting": "curve of first compound, second compound 0.003 µM", "result": 1080, "unit": "nM"}, {"measurement": "IC50", "setting": "curve of first compound, second compound 0.00949 µM", "result": "< 31.6", "unit": "nM"}, {"measurement": "IC50", "setting": "curve of first compound, second compound 0.03 µM", "result": "< 31.6", "unit": "nM"}, {"measurement": "IC50", "setting": "curve of first compound, second compound 0.0949 µM", "result": "< 31.6", "unit": "nM"}, {"measurement": "IC50", "setting": "curve of first compound, second compound 0.3 µM", "result": "< 31.6", "unit": "nM"}, {"measurement": "viability, T/C", "setting": "second compound 0.000949 µM, first compound 0.0316 µM", "result": 124, "unit": "%"}, {"measurement": "viability, T/C", "setting": "second compound 0.000949 µM, first compound 0.1 µM", "result": 104, "unit": "%"}, {"measurement": "viability, T/C", "setting": "second compound 0.000949 µM, first compound 0.316 µM", "result": 108, "unit": "%"}, {"measurement": "viability, T/C", "setting": "second compound 0.000949 µM, first compound 1 µM", "result": 86.7, "unit": "%"}, {"measurement": "viability, T/C", "setting": "second compound 0.000949 µM, first compound 3.16 µM", "result": 61.8, "unit": "%"}, {"measurement": "viability, T/C", "setting": "second compound 0.000949 µM, first compound 10 µM", "result": 1.35, "unit": "%"}, {"measurement": "viability, T/C", "setting": "second compound 0.003 µM, first compound 0.0316 µM", "result": 116, "unit": "%"}, {"measurement": "viability, T/C", "setting": "second compound 0.003 µM, first compound 0.1 µM", "result": 107, "unit": "%"}, {"measurement": "viability, T/C", "setting": "second compound 0.003 µM, first compound 0.316 µM", "result": 60.8, "unit": "%"}, {"measurement": "viability, T/C", "setting": "second compound 0.003 µM, first compound 1 µM", "result": 55.4, "unit": "%"}, {"measurement": "viability, T/C", "setting": "second compound 0.003 µM, first compound 3.16 µM", "result": 36.9, "unit": "%"}, {"measurement": "viability, T/C", "setting": "second compound 0.003 µM, first compound 10 µM", "result": 0.72, "unit": "%"}, {"measurement": "viability, T/C", "setting": "second compound 0.00949 µM, first compound 0.0316 µM", "result": 47.4, "unit": "%"}, {"measurement": "viability, T/C", "setting": "second compound 0.00949 µM, first compound 0.1 µM", "result": 41, "unit": "%"}, {"measurement": "viability, T/C", "setting": "second compound 0.00949 µM, first compound 0.316 µM", "result": 23.6, "unit": "%"}, {"measurement": "viability, T/C", "setting": "second compound 0.00949 µM, first compound 1 µM", "result": 20.1, "unit": "%"}, {"measurement": "viability, T/C", "setting": "second compound 0.00949 µM, first compound 3.16 µM", "result": 14, "unit": "%"}, {"measurement": "viability, T/C", "setting": "second compound 0.00949 µM, first compound 10 µM", "result": 0.4, "unit": "%"}, {"measurement": "viability, T/C", "setting": "second compound 0.03 µM, first compound 0.0316 µM", "result": 15.2, "unit": "%"}, {"measurement": "viability, T/C", "setting": "second compound 0.03 µM, first compound 0.1 µM", "result": 11.5, "unit": "%"}, {"measurement": "viability, T/C", "setting": "second compound 0.03 µM, first compound 0.316 µM", "result": 10.6, "unit": "%"}, {"measurement": "viability, T/C", "setting": "second compound 0.03 µM, first compound 1 µM", "result": 9.98, "unit": "%"}, {"measurement": "viability, T/C", "setting": "second compound 0.03 µM, first compound 3.16 µM", "result": 7.39, "unit": "%"}, {"measurement": "viability, T/C", "setting": "second compound 0.03 µM, first compound 10 µM", "result": 0.34, "unit": "%"}, {"measurement": "viability, T/C", "setting": "second compound 0.0949 µM, first compound 0.0316 µM", "result": 9.76, "unit": "%"}, {"measurement": "viability, T/C", "setting": "second compound 0.0949 µM, first compound 0.1 µM", "result": 7.17, "unit": "%"}, {"measurement": "viability, T/C", "setting": "second compound 0.0949 µM, first compound 0.316 µM", "result": 6.71, "unit": "%"}, {"measurement": "viability, T/C", "setting": "second compound 0.0949 µM, first compound 1 µM", "result": 6.53, "unit": "%"}, {"measurement": "viability, T/C", "setting": "second compound 0.0949 µM, first compound 3.16 µM", "result": 5.94, "unit": "%"}, {"measurement": "viability, T/C", "setting": "second compound 0.0949 µM, first compound 10 µM", "result": 0.31, "unit": "%"}, {"measurement": "viability, T/C", "setting": "second compound 0.3 µM, first compound 0.0316 µM", "result": 6.48, "unit": "%"}, {"measurement": "viability, T/C", "setting": "second compound 0.3 µM, first compound 0.1 µM", "result": 6.07, "unit": "%"}, {"measurement": "viability, T/C", "setting": "second compound 0.3 µM, first compound 0.316 µM", "result": 5.61, "unit": "%"}, {"measurement": "viability, T/C", "setting": "second compound 0.3 µM, first compound 1 µM", "result": 5.93, "unit": "%"}, {"measurement": "viability, T/C", "setting": "second compound 0.3 µM, first compound 3.16 µM", "result": 5.05, "unit": "%"}, {"measurement": "viability, T/C", "setting": "second compound 0.3 µM, first compound 10 µM", "result": 0.34, "unit": "%"}]}
{"smiles": "CCC(CC)c1cc(NC2CCC(N)C2)n2nccc2n1", "note": "(centres undefined)", "values": [{"measurement": "viability, T/C", "setting": "compound 0.0316 µM", "result": "98.2% [middle of 4 runs]"}, {"measurement": "viability, T/C", "setting": "compound 0.1 µM", "result": "94.7% [middle of 4 runs]"}, {"measurement": "viability, T/C", "setting": "compound 0.316 µM", "result": "90.1% [middle of 4 runs]"}, {"measurement": "viability, T/C", "setting": "compound 1 µM", "result": "91.8% [middle of 4 runs]"}, {"measurement": "viability, T/C", "setting": "compound 3.16 µM", "result": "5.37% [middle of 4 runs]"}, {"measurement": "viability, T/C", "setting": "compound 10 µM", "result": "0.37% [middle of 4 runs]"}, {"measurement": "IC50", "setting": "curve of compound", "result": "1.77 µM [middle of 4 runs]"}]}
